Columns and labels:
ERK8 = target: T1, ERK8 (Homo sapiens, UniProt Q8TD08); assay: KINOMEscan; type: binding; details: read-out: %Ctrl @ 1000 nM
T1 construct: purchased DiscoveRx KINOMEscan

TNK1 = target: T2, TNK1 (Homo sapiens, UniProt Q13470); assay: KINOMEscan; type: binding; details: read-out: %Ctrl @ 1000 nM
T2 construct: purchased DiscoveRx KINOMEscan

SGK2 = target: T3, SGK2 (Homo sapiens, UniProt Q9HBY8); assay: KINOMEscan; type: binding; details: read-out: %Ctrl @ 1000 nM
T3 construct: purchased DiscoveRx KINOMEscan

PIK4CB = target: T4, PIK4CB (Homo sapiens, UniProt Q9UBF8); assay: KINOMEscan; type: binding; details: read-out: %Ctrl @ 1000 nM
T4 construct: purchased DiscoveRx KINOMEscan

PIK3CA(H1047Y) = target: T5, PIK3CA(H1047Y) (Homo sapiens, UniProt P42336, H1047Y); assay: KINOMEscan; type: binding; details: read-out: %Ctrl @ 1000 nM
T5 construct: purchased DiscoveRx KINOMEscan

PDPK1 = target: T6, PDPK1 (Homo sapiens, UniProt O15530); assay: KINOMEscan; type: binding; details: read-out: %Ctrl @ 1000 nM
T6 construct: purchased DiscoveRx KINOMEscan

MEK5 = target: T7, MEK5 (Homo sapiens, UniProt Q13163); assay: KINOMEscan; type: binding; details: read-out: %Ctrl @ 1000 nM
T7 construct: purchased DiscoveRx KINOMEscan

PRKCI = target: T8, PRKCI (Homo sapiens, UniProt P41743); assay: KINOMEscan; type: binding; details: read-out: %Ctrl @ 1000 nM
T8 construct: purchased DiscoveRx KINOMEscan

FGFR4 = target: T9, FGFR4 (Homo sapiens, UniProt P22455); assay: KINOMEscan; type: binding; details: read-out: %Ctrl @ 1000 nM
T9 construct: purchased DiscoveRx KINOMEscan

[1] = target: RPS6KA4(Kin.Dom.2-C-terminal) (Homo sapiens, UniProt O75676); assay: KINOMEscan; type: binding; details: read-out: %Ctrl @ 1000 nM
CHEK1 = target: T10, CHEK1 (Homo sapiens, UniProt O14757); assay: KINOMEscan; type: binding; details: read-out: %Ctrl @ 1000 nM
T10 construct: purchased DiscoveRx KINOMEscan

CAMK2D = target: T11, CAMK2D (Homo sapiens, UniProt Q13557); assay: KINOMEscan; type: binding; details: read-out: %Ctrl @ 1000 nM
T11 construct: purchased DiscoveRx KINOMEscan

PRKCD = target: T12, PRKCD (Homo sapiens, UniProt Q05655); assay: KINOMEscan; type: binding; details: read-out: %Ctrl @ 1000 nM
T12 construct: purchased DiscoveRx KINOMEscan
T12 sequence (Q05655 whole entry): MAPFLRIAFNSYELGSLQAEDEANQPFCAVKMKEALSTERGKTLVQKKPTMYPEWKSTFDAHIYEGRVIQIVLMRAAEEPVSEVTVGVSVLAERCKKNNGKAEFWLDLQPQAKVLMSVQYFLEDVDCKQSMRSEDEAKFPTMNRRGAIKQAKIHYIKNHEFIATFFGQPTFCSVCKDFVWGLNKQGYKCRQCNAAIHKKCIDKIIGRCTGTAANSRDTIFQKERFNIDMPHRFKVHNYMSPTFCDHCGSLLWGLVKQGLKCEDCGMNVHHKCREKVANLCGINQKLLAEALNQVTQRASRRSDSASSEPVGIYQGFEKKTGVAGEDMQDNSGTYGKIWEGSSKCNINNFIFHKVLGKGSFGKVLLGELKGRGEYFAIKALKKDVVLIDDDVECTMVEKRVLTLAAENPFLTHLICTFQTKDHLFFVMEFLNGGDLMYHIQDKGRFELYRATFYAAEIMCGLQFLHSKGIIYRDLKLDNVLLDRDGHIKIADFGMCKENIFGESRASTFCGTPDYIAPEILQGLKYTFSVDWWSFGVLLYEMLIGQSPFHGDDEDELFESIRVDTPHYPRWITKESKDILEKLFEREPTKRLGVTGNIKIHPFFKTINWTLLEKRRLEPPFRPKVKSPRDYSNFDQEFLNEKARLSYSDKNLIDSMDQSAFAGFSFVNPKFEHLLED

CSNK1A1L = target: T13, CSNK1A1L (Homo sapiens, UniProt Q8N752); assay: KINOMEscan; type: binding; details: read-out: %Ctrl @ 1000 nM
T13 construct: purchased DiscoveRx KINOMEscan
T13 sequence (Q8N752 whole entry): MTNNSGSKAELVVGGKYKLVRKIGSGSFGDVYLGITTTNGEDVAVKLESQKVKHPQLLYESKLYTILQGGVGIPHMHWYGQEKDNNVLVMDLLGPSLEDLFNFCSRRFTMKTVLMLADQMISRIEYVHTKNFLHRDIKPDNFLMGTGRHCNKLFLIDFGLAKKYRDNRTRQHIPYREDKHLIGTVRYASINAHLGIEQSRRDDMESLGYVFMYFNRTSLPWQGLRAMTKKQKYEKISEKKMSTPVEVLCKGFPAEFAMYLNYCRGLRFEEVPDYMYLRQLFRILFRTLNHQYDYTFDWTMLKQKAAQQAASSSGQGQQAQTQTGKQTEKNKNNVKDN

TAOK1 = target: T14, TAOK1 (Homo sapiens, UniProt Q7L7X3); assay: KINOMEscan; type: binding; details: read-out: %Ctrl @ 1000 nM
T14 construct: purchased DiscoveRx KINOMEscan

TNIK = target: T15, TNIK (Homo sapiens, UniProt Q9UKE5); assay: KINOMEscan; type: binding; details: read-out: %Ctrl @ 1000 nM
T15 construct: purchased DiscoveRx KINOMEscan

[2] = Metabolic stability in rat hepatocytes; type: in vitro ADME; details: read-out: CL (CLblood) (converted)
Procedure: Liver cells were distributed in Williams’ medium E containing 5% fetal calf serum (FCS) to glass vials at a density of 1.0 × 10^6 vital cells/mL. The test compound was added to a final concentration of 1 μM. During incubation, the hepatocyte suspensions were continuously shaken and aliquots were taken at 2, 8, 16, 30, 45, and 90 min, to which an equal volume of cold MeOH was immediately added. Samples were frozen at −20 °C overnight, then centrifuged (15 min, 3000 rpm), and the supernatant was analyzed with an Agilent 1200 HPLC system with LC-MS/MS detection. The half-life of a test compound was determined from the concentration–time plot. The intrinsic clearances were calculated from the half-life, together with additional parameters (liver blood flow, quantity of liver cells in vivo and in vitro).

EGFR(L858R) = target: T16, EGFR(L858R) (Homo sapiens, UniProt P00533, L858R); assay: KINOMEscan; type: binding; details: read-out: %Ctrl @ 1000 nM
T16 construct: purchased DiscoveRx KINOMEscan

MYLK = target: T17, MYLK (Homo sapiens, UniProt Q15746); assay: KINOMEscan; type: binding; details: read-out: %Ctrl @ 1000 nM
T17 construct: purchased DiscoveRx KINOMEscan

[3] = target: T18, ABL1(T315I)-phosphorylated (Homo sapiens, UniProt P00519, T315I); assay: KINOMEscan; type: binding; details: read-out: %Ctrl @ 1000 nM
T18 construct: purchased DiscoveRx

ITK = target: T19, ITK (Homo sapiens, UniProt Q08881); assay: KINOMEscan; type: binding; details: read-out: %Ctrl @ 1000 nM
T19 construct: purchased DiscoveRx KINOMEscan

DYRK1B = target: T20, DYRK1B (Homo sapiens, UniProt Q9Y463); assay: KINOMEscan; type: binding; details: read-out: %Ctrl @ 1000 nM
T20 construct: purchased DiscoveRx KINOMEscan

DMPK2 = target: T21, DMPK2 (Homo sapiens, UniProt Q6DT37); assay: KINOMEscan; type: binding; details: read-out: %Ctrl @ 1000 nM
T21 construct: purchased DiscoveRx KINOMEscan
T21 sequence (Q6DT37 whole entry): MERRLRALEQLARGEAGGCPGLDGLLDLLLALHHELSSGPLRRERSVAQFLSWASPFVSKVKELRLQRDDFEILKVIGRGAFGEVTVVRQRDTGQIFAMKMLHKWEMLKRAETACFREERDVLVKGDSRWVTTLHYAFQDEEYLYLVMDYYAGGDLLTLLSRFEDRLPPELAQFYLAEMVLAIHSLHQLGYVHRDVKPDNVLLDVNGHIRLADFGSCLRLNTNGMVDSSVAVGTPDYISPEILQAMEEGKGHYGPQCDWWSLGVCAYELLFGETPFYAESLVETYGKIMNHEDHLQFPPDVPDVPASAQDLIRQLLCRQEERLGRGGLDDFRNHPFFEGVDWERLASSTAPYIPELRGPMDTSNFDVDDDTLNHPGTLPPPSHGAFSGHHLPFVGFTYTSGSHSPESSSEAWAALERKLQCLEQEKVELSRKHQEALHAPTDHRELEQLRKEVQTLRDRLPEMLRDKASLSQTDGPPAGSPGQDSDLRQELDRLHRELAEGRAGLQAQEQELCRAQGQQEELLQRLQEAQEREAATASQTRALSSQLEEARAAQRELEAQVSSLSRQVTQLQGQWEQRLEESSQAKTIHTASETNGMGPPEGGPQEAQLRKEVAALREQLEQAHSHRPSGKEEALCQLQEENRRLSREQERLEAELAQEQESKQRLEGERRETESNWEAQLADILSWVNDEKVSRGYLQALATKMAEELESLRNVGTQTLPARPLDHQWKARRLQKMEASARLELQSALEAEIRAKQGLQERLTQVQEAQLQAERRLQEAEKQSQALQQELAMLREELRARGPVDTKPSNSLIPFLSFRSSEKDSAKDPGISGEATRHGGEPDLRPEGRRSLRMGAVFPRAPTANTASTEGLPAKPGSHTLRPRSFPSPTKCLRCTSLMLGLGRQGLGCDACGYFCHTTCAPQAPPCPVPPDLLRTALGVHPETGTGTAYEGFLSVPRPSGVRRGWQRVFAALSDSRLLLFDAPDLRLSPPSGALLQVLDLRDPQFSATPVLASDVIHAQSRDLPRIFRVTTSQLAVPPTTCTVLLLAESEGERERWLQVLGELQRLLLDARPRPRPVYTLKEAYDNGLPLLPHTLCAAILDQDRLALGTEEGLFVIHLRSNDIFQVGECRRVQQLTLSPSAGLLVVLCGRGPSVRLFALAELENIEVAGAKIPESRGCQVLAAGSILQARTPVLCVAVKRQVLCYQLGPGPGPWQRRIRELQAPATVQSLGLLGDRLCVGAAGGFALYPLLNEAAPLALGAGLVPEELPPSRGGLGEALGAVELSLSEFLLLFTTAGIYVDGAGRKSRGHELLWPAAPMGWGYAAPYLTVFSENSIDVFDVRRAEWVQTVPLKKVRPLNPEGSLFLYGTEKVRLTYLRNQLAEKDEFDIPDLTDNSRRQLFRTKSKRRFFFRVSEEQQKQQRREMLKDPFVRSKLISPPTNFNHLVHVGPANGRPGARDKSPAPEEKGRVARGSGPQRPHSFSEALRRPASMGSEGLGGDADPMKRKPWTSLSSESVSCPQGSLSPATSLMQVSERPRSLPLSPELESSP

ROS1 = target: T22, ROS1 (Homo sapiens, UniProt P08922); assay: KINOMEscan; type: binding; details: read-out: %Ctrl @ 1000 nM
T22 construct: purchased DiscoveRx KINOMEscan

CDK9 = target: T23, CDK9 (Homo sapiens, UniProt P50750); assay: KINOMEscan; type: binding; details: read-out: %Ctrl @ 1000 nM
T23 construct: purchased DiscoveRx KINOMEscan
T23 sequence (P50750 whole entry): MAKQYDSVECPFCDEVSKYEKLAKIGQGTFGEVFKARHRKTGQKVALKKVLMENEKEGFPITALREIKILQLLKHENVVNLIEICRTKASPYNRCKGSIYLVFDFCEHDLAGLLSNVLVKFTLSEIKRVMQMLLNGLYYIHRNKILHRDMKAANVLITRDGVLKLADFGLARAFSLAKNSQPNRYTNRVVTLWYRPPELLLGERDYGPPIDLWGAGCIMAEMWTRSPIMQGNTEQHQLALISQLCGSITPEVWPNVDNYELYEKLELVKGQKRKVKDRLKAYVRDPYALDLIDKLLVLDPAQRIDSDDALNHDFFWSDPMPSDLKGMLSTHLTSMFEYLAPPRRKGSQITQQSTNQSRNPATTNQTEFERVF

[4] = target: T24, TYK2(JH2domain-pseudokinase) (Homo sapiens, UniProt P29597); assay: KINOMEscan; type: binding; details: read-out: %Ctrl @ 1000 nM
T24 construct: TYK2(JH2domain-pseudokinase); purchased DiscoveRx KINOMEscan

AKT2 = target: T25, AKT2 (Homo sapiens, UniProt P31751); assay: KINOMEscan; type: binding; details: read-out: %Ctrl @ 1000 nM
T25 construct: purchased DiscoveRx KINOMEscan
T25 sequence (P31751 whole entry): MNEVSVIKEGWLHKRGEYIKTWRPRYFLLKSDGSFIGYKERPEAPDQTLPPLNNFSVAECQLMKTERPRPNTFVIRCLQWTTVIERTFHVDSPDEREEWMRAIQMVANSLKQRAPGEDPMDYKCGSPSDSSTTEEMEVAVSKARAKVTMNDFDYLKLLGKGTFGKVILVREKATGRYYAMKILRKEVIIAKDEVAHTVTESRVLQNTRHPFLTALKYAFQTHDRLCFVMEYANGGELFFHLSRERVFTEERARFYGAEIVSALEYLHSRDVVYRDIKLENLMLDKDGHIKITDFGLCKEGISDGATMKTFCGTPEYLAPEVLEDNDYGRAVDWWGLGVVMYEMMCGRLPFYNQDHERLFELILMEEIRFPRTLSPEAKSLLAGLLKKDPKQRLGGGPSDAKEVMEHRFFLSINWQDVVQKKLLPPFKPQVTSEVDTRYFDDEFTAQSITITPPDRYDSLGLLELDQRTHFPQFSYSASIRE

CAMK1 = target: T26, CAMK1 (Homo sapiens, UniProt Q14012); assay: KINOMEscan; type: binding; details: read-out: %Ctrl @ 1000 nM
T26 construct: purchased DiscoveRx KINOMEscan
T26 sequence (Q14012 whole entry): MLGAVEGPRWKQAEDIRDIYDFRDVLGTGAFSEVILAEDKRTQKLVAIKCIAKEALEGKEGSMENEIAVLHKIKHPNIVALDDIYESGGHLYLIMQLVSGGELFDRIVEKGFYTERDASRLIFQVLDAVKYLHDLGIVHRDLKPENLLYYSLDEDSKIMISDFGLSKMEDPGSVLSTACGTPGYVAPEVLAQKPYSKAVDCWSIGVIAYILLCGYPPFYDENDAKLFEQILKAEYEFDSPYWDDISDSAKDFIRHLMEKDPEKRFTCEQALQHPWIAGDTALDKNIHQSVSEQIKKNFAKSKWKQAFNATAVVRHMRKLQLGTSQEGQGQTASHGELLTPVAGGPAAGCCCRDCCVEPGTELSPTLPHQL

AXL = target: T27, AXL (Homo sapiens, UniProt P30530); assay: KINOMEscan; type: binding; details: read-out: %Ctrl @ 1000 nM
T27 construct: purchased DiscoveRx KINOMEscan

SNARK = target: T28, SNARK (Homo sapiens, UniProt Q9H093); assay: KINOMEscan; type: binding; details: read-out: %Ctrl @ 1000 nM
T28 construct: purchased DiscoveRx KINOMEscan

BRK = target: T29, BRK (Homo sapiens, UniProt Q13882); assay: KINOMEscan; type: binding; details: read-out: %Ctrl @ 1000 nM
T29 construct: purchased DiscoveRx KINOMEscan

[5] = target: T30, RSK2(Kin.Dom.1-N-terminal) (Homo sapiens, UniProt P51812); assay: KINOMEscan; type: binding; details: read-out: %Ctrl @ 1000 nM
T30 construct: RSK2(Kin.Dom.1-N-terminal); purchased DiscoveRx KINOMEscan

[6] = target: T31, TYK2(JH1domain-catalytic) (Homo sapiens, UniProt P29597); assay: KINOMEscan; type: binding; details: read-out: %Ctrl @ 1000 nM
T31 construct: TYK2(JH1domain-catalytic); purchased DiscoveRx KINOMEscan

FGFR2 = target: T32, FGFR2 (Homo sapiens, UniProt P21802); assay: KINOMEscan; type: binding; details: read-out: %Ctrl @ 1000 nM
T32 construct: purchased DiscoveRx KINOMEscan

LRRK2 = target: T33, LRRK2 (Homo sapiens, UniProt Q5S007); assay: KINOMEscan; type: binding; details: read-out: %Ctrl @ 1000 nM
T33 construct: purchased DiscoveRx KINOMEscan

CAMK2G = target: T34, CAMK2G (Homo sapiens, UniProt Q13555); assay: KINOMEscan; type: binding; details: read-out: %Ctrl @ 1000 nM
T34 construct: purchased DiscoveRx KINOMEscan
T34 sequence (Q13555 whole entry): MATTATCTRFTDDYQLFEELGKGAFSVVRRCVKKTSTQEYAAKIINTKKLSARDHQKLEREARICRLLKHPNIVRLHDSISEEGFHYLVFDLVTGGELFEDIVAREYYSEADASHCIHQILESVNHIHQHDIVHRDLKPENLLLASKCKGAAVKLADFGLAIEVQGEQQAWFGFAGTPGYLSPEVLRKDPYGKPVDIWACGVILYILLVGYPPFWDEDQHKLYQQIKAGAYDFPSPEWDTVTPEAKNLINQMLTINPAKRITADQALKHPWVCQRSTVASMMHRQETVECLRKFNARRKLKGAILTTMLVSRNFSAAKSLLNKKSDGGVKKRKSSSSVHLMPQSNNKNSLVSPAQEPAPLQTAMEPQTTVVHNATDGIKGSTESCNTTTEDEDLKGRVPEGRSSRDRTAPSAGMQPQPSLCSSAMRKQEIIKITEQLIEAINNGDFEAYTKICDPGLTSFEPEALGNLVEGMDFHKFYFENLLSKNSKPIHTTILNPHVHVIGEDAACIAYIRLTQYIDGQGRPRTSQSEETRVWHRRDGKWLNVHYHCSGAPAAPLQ

DAPK2 = target: T35, DAPK2 (Homo sapiens, UniProt Q9UIK4); assay: KINOMEscan; type: binding; details: read-out: %Ctrl @ 1000 nM
T35 construct: purchased DiscoveRx KINOMEscan

MYLK2 = target: T36, MYLK2 (Homo sapiens, UniProt Q9H1R3); assay: KINOMEscan; type: binding; details: read-out: %Ctrl @ 1000 nM
T36 construct: purchased DiscoveRx KINOMEscan

T2 sequence (Q13470 whole entry): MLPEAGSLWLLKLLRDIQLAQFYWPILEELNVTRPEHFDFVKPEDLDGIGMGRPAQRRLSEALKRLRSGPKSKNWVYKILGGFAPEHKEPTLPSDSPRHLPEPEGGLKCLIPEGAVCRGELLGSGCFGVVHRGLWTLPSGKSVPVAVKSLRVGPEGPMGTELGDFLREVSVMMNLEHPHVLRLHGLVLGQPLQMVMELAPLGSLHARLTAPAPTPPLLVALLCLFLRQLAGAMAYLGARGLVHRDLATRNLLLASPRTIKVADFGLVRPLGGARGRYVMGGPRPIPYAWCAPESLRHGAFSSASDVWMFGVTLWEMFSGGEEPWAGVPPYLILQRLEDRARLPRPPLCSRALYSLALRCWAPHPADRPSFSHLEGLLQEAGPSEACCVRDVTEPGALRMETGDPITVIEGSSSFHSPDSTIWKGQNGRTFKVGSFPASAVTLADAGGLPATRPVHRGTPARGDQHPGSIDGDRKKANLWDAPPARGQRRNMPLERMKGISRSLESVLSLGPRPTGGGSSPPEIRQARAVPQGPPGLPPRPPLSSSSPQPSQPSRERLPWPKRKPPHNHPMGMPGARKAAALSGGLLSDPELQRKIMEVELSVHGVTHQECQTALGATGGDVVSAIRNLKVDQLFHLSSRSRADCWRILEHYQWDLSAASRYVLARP

CCN(C(=O)CO)[C@H]1CN(/C(=N\C#N)Nc2cccc(OC(F)F)c2)N=C1c1ccc(Cl)c(Cl)c1 [(S)-4]
remaining binding at 1 µM (ERK8): 96%
remaining binding at 1 µM (TNK1): 66%
remaining binding at 1 µM (SGK2): 100%
remaining binding at 1 µM (PIK4CB): 100%
remaining binding at 1 µM (PIK3CA(H1047Y)): 92%
remaining binding at 1 µM (PDPK1): 59%
remaining binding at 1 µM (MEK5): 100%
remaining binding at 1 µM (PRKCI): 63%
remaining binding at 1 µM (FGFR4): 71%
remaining binding at 1 µM [1]: 93%
remaining binding at 1 µM (CHEK1): 98%
remaining binding at 1 µM (CAMK2D): 96%
remaining binding at 1 µM (PRKCD): 89%
remaining binding at 1 µM (CSNK1A1L): 94%
remaining binding at 1 µM (TAOK1): 89%
remaining binding at 1 µM (TNIK): 100%
CLhep predicted at […], 1 µM [2]: 2.5 L/h/kg
remaining binding at 1 µM (EGFR(L858R)): 91%
remaining binding at 1 µM (MYLK): 86%
remaining binding at 1 µM [3]: 100%
remaining binding at 1 µM (ITK): 94%
remaining binding at 1 µM (DYRK1B): 74%
remaining binding at 1 µM (DMPK2): 66%
remaining binding at 1 µM (ROS1): 68%
remaining binding at 1 µM (CDK9): 74%
remaining binding at 1 µM [4]: 95%
remaining binding at 1 µM (AKT2): 100%
remaining binding at 1 µM (CAMK1): 85%
remaining binding at 1 µM (AXL): 91%
remaining binding at 1 µM (SNARK): 100%
remaining binding at 1 µM (BRK): 73%
remaining binding at 1 µM [5]: 99%
remaining binding at 1 µM [6]: 88%
remaining binding at 1 µM (FGFR2): 86%
remaining binding at 1 µM (LRRK2): 100%
remaining binding at 1 µM (CAMK2G): 89%
remaining binding at 1 µM (DAPK2): 100%
remaining binding at 1 µM (MYLK2): 100%

From publication PMC4917279 (Journal of Medicinal Chemistry, 2016)
